# Laboratory results taken from US20110059910A1, “Novel aromatic fluoroglycoside derivatives, pharmaceuticals comprising said compounds and the use thereof” (SANOFI-AVENTIS, priority 2008, published 2011).
# Target: T1, human sodium-dependent glucose transporter 2 (SGLT2, SLC5A2) (Homo sapiens, UniProt P31639)
# T1 construct: Bases 21 to 2039 correspond to the complete coding region of human SGLT2; expressed in transfected cells
# T1 sequence (P31639 1-672): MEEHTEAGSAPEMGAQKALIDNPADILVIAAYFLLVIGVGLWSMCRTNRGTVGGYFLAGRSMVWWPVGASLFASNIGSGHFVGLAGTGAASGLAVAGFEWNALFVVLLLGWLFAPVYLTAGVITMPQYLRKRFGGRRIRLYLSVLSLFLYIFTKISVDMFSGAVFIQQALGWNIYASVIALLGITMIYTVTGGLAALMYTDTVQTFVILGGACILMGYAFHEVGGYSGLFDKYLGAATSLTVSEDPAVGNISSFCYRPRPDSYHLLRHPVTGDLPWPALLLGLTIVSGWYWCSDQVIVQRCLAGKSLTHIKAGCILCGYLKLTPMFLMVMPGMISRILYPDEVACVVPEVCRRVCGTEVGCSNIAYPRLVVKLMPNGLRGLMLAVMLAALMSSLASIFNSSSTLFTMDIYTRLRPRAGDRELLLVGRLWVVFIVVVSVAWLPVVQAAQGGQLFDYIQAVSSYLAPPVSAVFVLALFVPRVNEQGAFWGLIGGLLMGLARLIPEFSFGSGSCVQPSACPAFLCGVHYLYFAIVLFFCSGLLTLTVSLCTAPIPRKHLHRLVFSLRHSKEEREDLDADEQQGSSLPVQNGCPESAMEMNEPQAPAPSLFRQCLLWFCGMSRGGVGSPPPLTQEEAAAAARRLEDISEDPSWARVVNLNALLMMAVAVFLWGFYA
# Assay: Inhibition of the transport activity of human SGLT2 in vitro (α-MDG uptake in CHO-TRex-hSGLT2 cells)
# Type: cell-based
# Details: 50 μM α-MDG, 120 min at 37° C.
# Excerpt: Inhibition of the Transport Activity of the Human Sodium-Dependent Glucose Transporter 2 (SGLT2, SLC5A2) In Vitro
# 1. Cloning of an Expression Vector for Human SGLT2
# The cDNA for human SGLT2 was introduced into the pcDNA4/TO vector (Invitrogen) by means of standard methods of molecular biology as described in Sambrook et al. (Molecular Cloning, A Laboratory Manual, Second Edition). […] Bases 21 to 2039 correspond to the complete coding region of human SGLT2.
# 2. Production of a Recombinant Cell Line with Inducible Expression of Human SGLT2
# The expression vector for human SGLT2 was introduced into CHO-TREx cells (Invitrogen) by means of FuGene6 lipofection (Roche). To select single cell clones, 600 μg/ml of Zeocin (Invitrogen) was added to the cell culture medium (nutrient mixture F-12 (Ham), (Invitrogen) supplemented with 10% fetal calf serum (FBS Gold, PAA), 10 μg/ml Blasticidin S(CN Biosciences), 100 units/ml penicillin, 100 units/ml streptomycin). The functionality of the single cell clones resulting from the selection was tested via their uptake activity for radiolabeled methyl-α-D-glucopyranoside. That cell clone with the highest uptake activity for methyl-α-D-glucopyranoside, referred to hereinafter as CHO-TRex-hSGLT2, was selected for the further experiments and cultured further in the presence of 600 μg/ml Zeocin.
# 3. Measurement of the Inhibiting Action of Test Substances on the Uptake of methyl-α-D-glucopyranoside (α-MDG)
# CHO-TRex-hSGLT2 cells were seeded in cell culture medium in a concentration of 50 000 cells per well in Cytostar-T scintillating 96-well plates (Amersham Biosciences) and cultivated for 24 h. The expression of the recombinant human SGLT2 was induced by adding 1 μg/ml tetrazykline for a further 24 h. For α-MDG uptake experiments, the cells were washed with PBS and then starved at 37° C. in starvation medium (PBS supplemented with 10% fetal calf serum) for 1 hour. After a further washing step with transport assay buffer (140 mM sodium chloride, 2 mm potassium chloride, 1 mm magnesium chloride, 1 mm calcium chloride, 10 mm HEPES/Tris, pH 7.5), the cells were incubated at room temperature either in the absence or presence of test substances of different concentration for 15 min. The test substances were diluted correspondingly in transport assay buffer proceeding from a 10 mm stock solution in dimethyl sulfoxide (40 μl/well). The assay was subsequently started by adding 10 μl/well of a mixture of radiolabeled methyl-α-D-[U-^14C]glucopyranoside (Amersham) and unlabeled methyl-α-D-glucopyranoside (Acros). The final concentration of methyl-α-D-glucopyranoside in the assay was 50 μM. After an incubation time of 120 min at 37° C., the reaction was stopped by adding 50 μl/well of 10 mM methyl-α-D-glucopyranoside in transport assay buffer (4° C.), and the radioactivity taken up into the cells was determined in a MicroBeta Scintillation Microplate Reader (Wallac).
# The half-maximum inhibiting action of the test substances (IC50 value) was determined as follows: • 1. Determination of the value for 0% inhibition. This is the measurement in the absence of substance, measured in sodium-containing transport assay buffer. • 2. Determination of the value for 100% inhibition. This is the measurement in the absence of substance, measured in sodium-free transport assay buffer (140 mM choline chloride, 2 mM potassium chloride, 1 mM magnesium chloride, 1 mM calcium chloride, 10 mM HEPES/Tris, pH7.5). • 3. Calculation of the percentage inhibition values of those measurements which were carried out in the presence of different concentrations of test substance. From this, it was then possible to determine that concentration of the test substance which reduces the uptake of the methyl-α-D-glucopyranoside by 50% (IC50 value).
row,IC50,SMILES
1,12 nM,CCc1ccc(Cc2cc(C3OC(CO)C(F)(F)C(O)C3O)ccc2Cl)cc1 (centres unmarked) [Example 1]
2,18 nM,CCOc1ccc(Cc2cc(C3OC(CO)C(F)(F)C(O)C3O)ccc2Cl)cc1 (centres unmarked) [Example 2]
3,8 nM,CCc1ccc(Cc2cc(C3OC(CO)C(F)C(O)C3O)ccc2Cl)cc1 (centres unmarked) [Example 3]
4,5 nM,COc1ccc(Cc2cccc(C3OC(CO)C(F)C(O)C3O)c2)cc1 (centres unmarked) [Example 5]
5,12 nM,CCc1ccc(Cc2cc(C3OC(CO)C(F)C(O)C3O)ccc2Cl)s1 (centres unmarked) [Example 6]
6,15 nM,OCC1OC(c2ccc(Cl)c(Cc3cc4ccccc4s3)c2)C(O)C(O)C1F (centres unmarked) [Example 7]
7,1400 nM,CCOC(=O)OCC1OC(c2ccc(F)c(Cc3ccc(OC)cc3)c2)C(O)C(O)C1F (centres unmarked) [Example 8]
8,32 nM,COc1ccc(Cc2cc(C3OC(CO)C(F)C(O)C3O)ccc2F)cc1 (centres unmarked) [Example 9]
9,1400 nM,CCOC(=O)OCC1OC(c2ccc(F)c(Cc3ccc(OC)cc3)c2)C(O)C(O)C1(F)F (centres unmarked) [Example 10]
10,54 nM,COc1ccc(Cc2cc(C3OC(CO)C(F)(F)C(O)C3O)ccc2F)cc1 (centres unmarked) [Example 11]
11,2700 nM,CCOC(=O)OCC1OC(c2ccc(OC)c(Cc3ccc(OC)cc3)c2)C(O)C(O)C1F (centres unmarked) [Example 12]
12,31 nM,COc1ccc(Cc2cc(C3OC(CO)C(F)C(O)C3O)ccc2OC)cc1 (centres unmarked) [Example 13]
13,80 nM,COc1ccc(Cc2cc(C3OC(CO)C(F)(F)C(O)C3O)ccc2OC)cc1 (centres unmarked) [Example 15]
14,2700 nM,CCOC(=O)OCC1OC(c2ccc(Cl)c(Cc3ccc(OCC)cc3)c2)C(O)C(O)C1F (centres unmarked) [Example 16]
15,10 nM,CCOc1ccc(Cc2cc(C3OC(CO)C(F)C(O)C3O)ccc2Cl)cc1 (centres unmarked) [Example 17]
16,897 nM,CCOC(=O)OCC1OC(c2ccc(Cl)c(Cc3ccc(OCC)cc3)c2)C(O)C(O)C1(F)F (centres unmarked) [Example 18]
17,339 nM,CCOC(=O)OCC1OC(c2ccc(Cl)c(Cc3ccc(OC)cc3)c2)C(O)C(O)C1(F)F (centres unmarked) [Example 21]
18,9 nM,COc1ccc(Cc2cc(C3OC(CO)C(F)(F)C(O)C3O)ccc2Cl)cc1 (centres unmarked) [Example 22]
19,976 nM,CCOC(=O)OCC1OC(c2ccc(Cl)c(Cc3ccc(OC(F)(F)F)cc3)c2)C(O)C(O)C1F (centres unmarked) [Example 24]
20,41 nM,OCC1OC(c2ccc(Cl)c(Cc3ccc(OC(F)(F)F)cc3)c2)C(O)C(O)C1F (centres unmarked) [Example 25]
21,> 10000 nM,CCOC(=O)OCC1OC(c2ccc(Cl)c(Cc3ccc(OC(F)(F)F)cc3)c2)C(O)C(O)C1(F)F (centres unmarked) [Example 26]

row,IC50,SMILES
1,199 nM,OCC1OC(c2ccc(Cl)c(Cc3ccc(OC(F)(F)F)cc3)c2)C(O)C(O)C1(F)F (centres unmarked) [Example 27]
2,15 nM,OC[C@H]1O[C@@H](c2ccc(Cl)c(Cc3ccc(O)cc3)c2)[C@H](O)[C@@H](O)C1(F)F [Example 30]
3,42 nM,CC(C)Oc1ccc(Cc2cc([C@@H]3O[C@H](CO)C(F)(F)[C@H](O)[C@H]3O)ccc2Cl)cc1 [Example 31]
4,38 nM,Cc1ccc(C2OC(CO)C(F)(F)C(O)C2O)cc1Cc1ccc(O)cc1 (centres unmarked) [Example 33]
5,27 nM,COc1ccc(Cc2cc(C3OC(CO)C(F)(F)C(O)C3O)ccc2C)cc1 (centres unmarked) [Example 34]
6,12600 nM,CCOC(=O)OCC1OC(c2ccc(Cl)c(Cc3ccc(OC)cn3)c2)C(O)C(O)C1F (centres unmarked) [Example 35]
7,304 nM,COc1ccc(Cc2cc(C3OC(CO)C(F)C(O)C3O)ccc2Cl)nc1 (centres unmarked) [Example 36]
8,11200 nM,CCOC(=O)OCC1OC(c2ccc(Cl)c(Cc3ccc(OC)cn3)c2)C(O)C(O)C1(F)F (centres unmarked) [Example 37]
9,393 nM,COc1ccc(Cc2cc(C3OC(CO)C(F)(F)C(O)C3O)ccc2Cl)nc1 (centres unmarked) [Example 38]
10,19800 nM,CCOC(=O)OC[C@H]1O[C@@H](c2ccc(OC(F)(F)F)c(Cc3ccc(OC)cc3)c2)[C@H](O)[C@@H](O)[C@@H]1F [Example 39]
11,412 nM,COc1ccc(Cc2cc([C@@H]3O[C@H](CO)[C@@H](F)[C@H](O)[C@H]3O)ccc2OC(F)(F)F)cc1 [Example 40]
12,12800 nM,CCOC(=O)OC[C@H]1O[C@@H](c2ccc(OC(F)(F)F)c(Cc3ccc(OC)cc3)c2)[C@H](O)[C@@H](O)C1(F)F [Example 41]
13,982 nM,COc1ccc(Cc2cc([C@@H]3O[C@H](CO)C(F)(F)[C@H](O)[C@H]3O)ccc2OC(F)(F)F)cc1 [Example 42]
14,24 nM,OC[C@H]1O[C@@H](c2ccc(Cl)c(Cc3ccc(Cl)cc3)c2)[C@H](O)[C@@H](O)[C@@H]1F [Example 44]
15,75 nM,OC[C@H]1O[C@@H](c2ccc(Cl)c(Cc3ccc(Cl)cc3)c2)[C@H](O)[C@@H](O)C1(F)F [Example 46]
16,74 nM,COc1ccc(Cc2cc([C@@H]3O[C@H](CO)[C@@H](F)[C@H](O)[C@H]3O)ccc2C(F)(F)F)cc1 [Example 48]
17,8000 nM,CCOC(=O)OC[C@H]1O[C@@H](c2ccc(C(F)(F)F)c(Cc3ccc(OC)cc3)c2)[C@H](O)[C@@H](O)C1(F)F [Example 49]
18,154 nM,COc1ccc(Cc2cc([C@@H]3O[C@H](CO)C(F)(F)[C@H](O)[C@H]3O)ccc2C(F)(F)F)cc1 [Example 50]
19,9.4 nM,COc1ccc(Cc2cc(C3OC(CO)C(F)C(O)C3O)ccc2Br)cc1 (centres unmarked) [Example 56]
20,10 nM,CCc1ccc(Cc2cc(C3OC(CO)C(F)C(O)C3O)ccc2C)cc1 (centres unmarked) [Example 61]
